According to patent publication US20260265055A1, “Sulfine-Based Compounds for Generating Hydrogen Persulfide” (Brown University, priority 2023, published 2026):

Key:
[1] = NMR monitoring of the oxidation of TT to TTS; assay type: physicochemical; conditions: TT 20 mM in CD3CN/D2O (1:1) with H2O2, room temperature
Experimental: To an NMR tube, the solution of TT (0.2 mmol, final concentration is 20 mM) in CD3CN/D2O (1:1) was added, followed by adding H2O2 (10 μM, 20 μM). The NMR tube was shacked immediately and incubated at room temperature for 0 min, 30 min, 3 h, and 24 h.
(§1) The transformation from TT to TTS was clean. The progress of the reaction was monitored by UV-Vis spectra and the reaction rate constant (k2) was measured to be […]. The oxidation of TT by several other oxidants including t-BuOOH, AcOOH, and OCl^− was measured and the TT oxidation rate constants k2 are summarized in Table 1. ^aThe rate constant was estimated.

[2] = Oxidation of TT to TTS by ROS, UV-Vis (339 nm); assay type: physicochemical; conditions: for k2 (TT oxidation rate constant): PBS pH 7.4
Experimental: TT was treated with H2O2, the most prevalent oxidant in biology. Stock solutions for hydrogen peroxide (H2O2), t-butyl hydroperoxide (^tBuOOH), peracetic acid (AcOOH), and sodium hypochlorite (NaOCl), were prepared in deionized water. H2O2 was diluted from a commercially available solution (30%). The concentration of H2O2 was determined using the absorption at 240 nm (ε=[…]). ^tBuOOH was diluted from commercially available solutions (70%). AcOOH was diluted from commercially available solutions (32%). NaOCl was diluted from commercially available solution containing 11-15% available chlorine. The concentration of HOCl was determined using the absorption at 292 nm (ε=[…]).
TT was dissolved in DMSO to afford a 10 mM stock solution. For H2O2, ^tBuOOH and AcOOH, substrate TT (10 μM) and ROS (1 mM) were mixed in PBS buffer, pH=7.4 with DMSO (1%) under room temperature. For NaClO, TT (100 μM) and NaClO (1 mM) were mixed in PBS buffer, pH=7.4 with DMSO (1%) under room temperature. The rate of production of TTS was detected by UV-Vis spectrum (λ=339 nm) based on the decrease of TT. A pseudo-first order reaction was assumed; the second-order k constant (k2) was calculated using the method described below.
as §1

[3] = SSP4 fluorescence assay to determine generation of H2S2 in buffer; conditions: SSP4 5 μM
Source text: To further evaluate the specificity of TTS in converting H2S to H2S2, SSP4 was used to monitor the formation of H2S2 in this reaction and the results were compared with a series of controls. Details of the SSP4 experiments are provided later herein. SSP4 is a well-established fluorescent sensor for sulfane sulfurs including H2S2. See Shieh, M. et al., Shining a light on SSP4: a comprehensive analysis and biological applications for the detection of sulfane sulfurs. Redox Biol. 2022, 56, 102433. […] Without wishing to be bound by scientific theory, it is believed that thiols would compete with SSP4 to react with H2S2, thereby causing decreased signals.
SSP4 was dissolved in DMSO to obtain a 200 μM stock solution. CTAB was dissolved in ethanol to yield a 2 mM stock solution. TTS and TT were dissolved in DMSO to make 1 mM stock solutions. Na2S, Na2S2, and L-cysteine were prepared in MilliQ H2O to obtain stock solutions at 2 mM, 1 mM, and 4 mM, respectively. 50 mM PBS buffer was added to individual wells of a black polystyrene, flat-bottomed clear 96-well plate, followed by TTS (25 μM) or TT (25 μM), and Na2S (50 μM), cysteine (100 μM), or Na2S2 (25 μM). For the interference assay, TTS or TT (25 μM) were added to wells with or without Na2S (50 μM). Samples were mixed by pipetting up and down and incubated in the dark at room temperature (rt) for 30 min. Next, CTAB (50 μM) was added to all wells followed by SSP4 (5 μM), and samples were mixed by pipetting up and down. The final volume was 200 μL in each well. Samples were then incubated in the dark at room temperature for another 30 min before being measured on a Molecular Devices SpectraMax iD3 Multi-Mode Microplate Reader (emission 525 nm; excitation 485 nm; integration time […], low PMT sensitivity, attenuation 1, read height 1.00 mm).

HeLa cells = assay: Live cell imaging of H2S2 formation with SSP4; assay type: cell-based; conditions: 30 min
Experimental: HeLa cells were seeded at ~7000 cells/well in a 96-well clear flat-bottomed BioLite plate (ThermoFisher Scientific, #130188) in DMEM/F12 (1:1) (Gibco, Invitrogen, #11330-032) medium supplemented with 10% fetal bovine serum (FBS) at 37° C., 5% CO2 overnight.
Preparation before cell treatment: Na2S and Na2S2 stocks were prepared at 10 mM in sterile 1×PBS. TTS and TT were prepared at 10 mM concentrations in DMSO. They were then diluted to 50 μM concentrations in serum-free Fluorobrite DMEM in individual Eppendorf tubes (0.5% DMSO). Na2S (final concentration=100 μM) was added to the Eppendorf tube containing Fluorobrite DMEM and TTS or TT immediately before being added to the cells. Compounds were mixed by pipetting up and down prior to cell addition.
Cell treatment: Culturing media was aspirated from all wells, and cells were washed twice with 1×PBS. Compounds were added to cells (200 μL/well) and incubated for 30 min at 37° C., 5% CO2. While cells were incubating, SSP4 treatment was prepared by first adding 5 mM CTAB in ethanol to Fluorobrite DMEM followed by 6.125 mM SSP4 in DMSO to final concentrations of 100 μM and 5 μM, respectively, in a tube. The final volume was 5 mL (0.08% DMSO). Compounds were mixed by pipetting up and down prior to cell addition. After incubation, media was aspirated, and cells were washed twice with 1×PBS. SSP4 treatment was added to all wells (100 μL/well), and cells were incubated for 30 min at 37° C., 5% CO2 for 30 min. Media was then aspirated, and cells were washed three times with 1×PBS. Fluorobrite DMEM was added to all wells before imaging on the Keyence All-in-One Fluorescence Microscope (BZ-X810) (excitation: 470/40 nm; emission: 525/50 nm).
As shown in FIGS. 4(A)-(D), HeLa cells were treated with TTS, TTS+H2S, or TT for 30 min before the fluorescent sensor SSP4 was applied to the cells to monitor the formation of H2S2. […] Na2S2 was used as the positive control in this study (FIG. 4D). Other control studies including TT+H2S, H2S only, and SSP4 only were also performed. […] FIG. 4H is a graph of fluorescence intensities of SSP4 staining. Data are mean values ±SEM calculated using ImageJ. (n=9, where three different images were obtained from each of three samples and quantified).

Compound: COC(=O)c1ccc(=S)sc1 [TT, methyl 2-thioxo-2H-thiopyran-5-carboxylate]
- time to completion of TT to TTS oxidation (NMR) [1]: 24 h
- k2 (TT oxidation rate constant) ([2]; ROS AcOOH 1 mM, TT 10 μM): 13.9 M⁻¹ s⁻¹
- k2 (TT oxidation rate constant) ([2]; ROS H2O2 1 mM, TT 10 μM): 0.1 M⁻¹ s⁻¹
- k2 (TT oxidation rate constant) ([2]; ROS OCl^− (NaClO 1 mM), TT 100 μM, rate constant was estimated): >1.0 × 10^3 M^−1 s^−1 a
- k2 (TT oxidation rate constant) ([2]; ROS ^tBuOOH 1 mM, TT 10 μM): 0.01 M⁻¹ s⁻¹
- reaction rate constant (k2) of TT oxidation by H2O2 ([2]; UV-Vis, TT 10 μM, H2O2 1 mM, PBS pH 7.4, room temperature): 0.1 M⁻¹ s⁻¹
- SSP4 fluorescence response (H2S2 formation) ([3]; 25 μM compound + 50 μM Na2S (H2S), PBS): No fluorescence
- SSP4 fluorescence response (sulfane sulfur formation) ([3]; 25 μM compound + 100 μM Cys): No fluorescence
- SSP4 fluorescence response (H2S2 formation) ([3]; 25 μM compound only): No fluorescence
- SSP4 fluorescence in HeLa cells (HeLa cells; compound 50 μM + Na2S 100 μM): Obvious fluorescence in these samples was not observed
- SSP4 fluorescence in HeLa cells (HeLa cells; compound only): did not show obvious fluorescence
